pIC50: −log10 of the molar value.
Columns and labels:
[1] = target: T1, Cytochrome P450 11B2, mitochondrial (Homo sapiens, UniProt P19099); test: Inhibition of human CYP11B2 expressed in Chinese hamster V79 MZh cells using [14C]-deoxycorticosteron as substrate measured after 6 hrs by phosphoimager analysis; assay type: ADME, cell-based
T1 sequence (P19099 whole entry): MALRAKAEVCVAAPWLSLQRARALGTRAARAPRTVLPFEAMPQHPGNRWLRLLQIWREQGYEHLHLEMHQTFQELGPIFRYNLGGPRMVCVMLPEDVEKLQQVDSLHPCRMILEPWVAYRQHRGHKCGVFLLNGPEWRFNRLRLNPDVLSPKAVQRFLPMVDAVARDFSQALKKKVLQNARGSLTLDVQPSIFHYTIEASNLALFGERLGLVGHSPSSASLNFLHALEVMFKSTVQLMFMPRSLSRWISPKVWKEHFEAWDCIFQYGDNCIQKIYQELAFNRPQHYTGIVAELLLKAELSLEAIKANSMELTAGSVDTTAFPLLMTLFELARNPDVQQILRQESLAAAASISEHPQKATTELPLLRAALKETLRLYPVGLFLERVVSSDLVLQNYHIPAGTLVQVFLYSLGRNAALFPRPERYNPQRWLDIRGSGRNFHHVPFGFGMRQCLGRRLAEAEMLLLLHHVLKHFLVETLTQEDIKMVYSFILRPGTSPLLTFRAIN

[2] = Selectivity ratio of IC50 for inhibition of human CYP11B2 to IC50 for inhibition of human CYP11B1; assay type: ADME
[3] = target: T2, Cytochrome P450 11B1, mitochondrial (Homo sapiens, UniProt P15538); test: Inhibition of human CYP11B1 expressed in Chinese hamster V79 MZh cells using [14C]-deoxycorticosteron as substrate measured after 6 hrs by phosphoimager analysis; assay type: ADME, cell-based
T2 sequence (P15538 whole entry): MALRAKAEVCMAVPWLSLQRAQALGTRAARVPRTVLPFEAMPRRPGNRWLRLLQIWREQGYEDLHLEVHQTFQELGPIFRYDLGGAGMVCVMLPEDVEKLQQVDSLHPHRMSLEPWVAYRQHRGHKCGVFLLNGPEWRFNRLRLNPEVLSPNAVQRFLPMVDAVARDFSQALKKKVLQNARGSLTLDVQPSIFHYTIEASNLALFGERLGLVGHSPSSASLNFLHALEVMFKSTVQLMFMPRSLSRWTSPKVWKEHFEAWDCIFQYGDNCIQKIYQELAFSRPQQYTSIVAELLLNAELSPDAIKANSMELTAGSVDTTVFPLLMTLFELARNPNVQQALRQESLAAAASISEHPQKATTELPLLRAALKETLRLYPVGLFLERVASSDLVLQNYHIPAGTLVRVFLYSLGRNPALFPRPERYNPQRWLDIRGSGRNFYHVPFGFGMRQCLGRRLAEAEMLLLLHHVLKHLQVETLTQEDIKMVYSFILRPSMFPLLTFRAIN

| SMILES | pIC50 [1] | pIC50 [3] | Ratio IC50 [2] |
| --- | --- | --- | --- |
| N#Cc1cccc(NC(=O)[C@]23ON=C(c4cccnc4)[C@H]2[C@@H]2CC[C@H]3C2)c1 | 5.66 | 7.46 | 62 |
| CN(C(=O)[C@]12ON=C(c3cccnc3)[C@H]1[C@@H]1CC[C@H]2C1)c1ccccc1 | 5.37 | 6.74 | 23 |
| O=C(Nc1ccc2[nH]ncc2c1)[C@]12ON=C(c3cncc(-c4cccc(C(F)(F)F)c4)c3)[C@H]1[C@@H]1CC[C@H]2C1 | 6.40 | 7.77 | 23 |
| COc1cccc(-c2cncc(C3=NO[C@]4(C(=O)Nc5ccc6[nH]ncc6c5)[C@H]5CC[C@H](C5)[C@H]34)c2)c1 | 6.32 | 7.82 | 32 |
| COc1ccccc1NC(=O)[C@]12ON=C(c3cccnc3)[C@H]1[C@@H]1CC[C@H]2C1 | 5.23 | 6.95 | 53 |
| Nc1ccccc1NC(=O)[C@]12ON=C(c3cccnc3)[C@H]1[C@@H]1CC[C@H]2C1 | 5.37 | 6.86 | 31 |
| N#Cc1ccc(-c2cncc(C3=NO[C@]4(C(=O)Nc5ccc6[nH]ncc6c5)[C@H]5CC[C@H](C5)[C@H]34)c2)cc1 | 7.24 | 8.70 | 28 |
| O=C(Nc1ccc2[nH]ncc2c1)[C@]12ON=C(c3cncc(Br)c3)[C@H]1[C@@H]1CC[C@H]2C1 | 6.04 | 7.51 | 30 |
| O=C(Nc1ccc2[nH]ncc2c1)[C@]12ON=C(c3cncc(-c4cccc(F)c4)c3)[C@H]1[C@@H]1CC[C@H]2C1 | 6.39 | 8.10 | 52 |
| O=C(Nc1cccc(Cl)c1Cl)[C@]12ON=C(c3cccnc3)[C@H]1[C@@H]1CC[C@H]2C1 | 5.29 | 6.80 | 33 |
| O=C(Nc1ncccn1)[C@]12ON=C(c3cccnc3)[C@H]1[C@@H]1CC[C@H]2C1 | 5.11 | 6.75 | 43 |
| Cc1ccncc1NC(=O)[C@]12ON=C(c3cccnc3)[C@H]1[C@@H]1CC[C@H]2C1 | 5.35 | 6.94 | 39 |
| O=C(Nc1ccc2[nH]ncc2c1)[C@]12ON=C(c3cncc(-c4ccoc4)c3)[C@H]1[C@@H]1CC[C@H]2C1 | 6.10 | 7.34 | 17 |
| N#Cc1cccc(-c2cncc(C3=NO[C@]4(C(=O)Nc5ccc6[nH]ncc6c5)[C@H]5CC[C@H](C5)[C@H]34)c2)c1 | 6.48 | 7.92 | 27 |
| O=C(Nc1ccc2[nH]ncc2c1)[C@]12ON=C(c3cncc(-c4ccsc4)c3)[C@H]1[C@@H]1CC[C@H]2C1 | 5.85 | 7.43 | 39 |
| O=C(Nc1ccc2[nH]ccc2c1)[C@]12ON=C(c3cccnc3)[C@H]1[C@@H]1CC[C@H]2C1 | 5.64 | 7.66 | 103 |
| O=C(Nc1cnc2[nH]ccc2c1)[C@]12ON=C(c3cccnc3)[C@H]1[C@@H]1CC[C@H]2C1 | 5.78 | 7.77 | 97 |
| O=C(Nc1ccc2cc[nH]c2c1)[C@]12ON=C(c3cccnc3)[C@H]1[C@@H]1CC[C@H]2C1 | 5.68 | 7.60 | 82 |
| O=C(Nc1cccc([N+](=O)[O-])c1)[C@]12ON=C(c3cccnc3)C1[C@@H]1CCC2C1 (single isomer, unassigned) | 5.58 | 7.19 | 41 |
| O=C(Nc1ccc2[nH]ncc2c1)[C@]12ON=C(c3cncc(-c4ccc(F)cc4)c3)[C@H]1[C@@H]1CC[C@H]2C1 | 6.95 | 8.22 | 19 |
| O=C(Nc1cccc(F)n1)[C@]12ON=C(c3cccnc3)[C@H]1[C@@H]1CC[C@H]2C1 | 5.40 | 7.07 | 47 |
| COc1cccc(NC(=O)[C@]23ON=C(c4cccnc4)[C@H]2[C@@H]2CC[C@H]3C2)c1 | 5.62 | 7.49 | 75 |
| O=C(Nc1nc2ccccc2[nH]1)[C@]12ON=C(c3cccnc3)[C@H]1[C@@H]1CC[C@H]2C1 | 5.53 | 6.97 | 28 |
| O=C(Nc1ccccc1F)[C@]12ON=C(c3cccnc3)[C@H]1[C@@H]1CC[C@H]2C1 | 5.24 | 6.87 | 43 |

Further lines, with some results ahead:

| pIC50 [1] | pIC50 [3] | SMILES | Ratio IC50 [2] |
| --- | --- | --- | --- |
| 5.02 | 6.82 | Cc1cccc(NC(=O)[C@]23ON=C(c4cccnc4)[C@H]2[C@@H]2CC[C@H]3C2)c1 | 63 |
| 5.25 | 7.02 | O=C(Nc1ccc([N+](=O)[O-])cc1)[C@]12ON=C(c3cccnc3)[C@H]1[C@@H]1CC[C@H]2C1 | 58 |
| 5.52 | 7.24 | O=C(Nc1ccc(F)cc1)[C@]12ON=C(c3cccnc3)[C@H]1[C@@H]1CC[C@H]2C1 | 53 |
| 5.01 | 6.72 | Cc1ccccc1NC(=O)[C@]12ON=C(c3cccnc3)[C@H]1[C@@H]1CC[C@H]2C1 | 52 |
| 5.55 | 7.31 | O=C(Nc1cccc(F)c1)[C@]12ON=C(c3cccnc3)[C@H]1[C@@H]1CC[C@H]2C1 | 58 |
| 5.17 | 7.08 | O=C(Nc1ccc(Cl)cc1)[C@]12ON=C(c3cccnc3)[C@H]1[C@@H]1CC[C@H]2C1 | 81 |
| 5.40 | 7.10 | COc1ccc(NC(=O)[C@]23ON=C(c4cccnc4)[C@H]2[C@@H]2CC[C@H]3C2)cc1 | 51 |
| 5.18 | 7.01 | O=C(Nc1cccc(Cl)c1)[C@]12ON=C(c3cccnc3)[C@H]1[C@@H]1CC[C@H]2C1 | 69 |
| 5.42 | 7.34 | N#Cc1ccc(NC(=O)[C@]23ON=C(c4cccnc4)[C@H]2[C@@H]2CC[C@H]3C2)cc1 | 83 |
| 5.23 | 6.78 | O=C(Nc1ccccc1)[C@]12ON=C(c3cccnc3)[C@H]1[C@@H]1CC[C@H]2C1 | 36 |
| 5.21 | 6.89 | Cc1ccc(NC(=O)[C@]23ON=C(c4cccnc4)[C@H]2[C@@H]2CC[C@H]3C2)cc1 | 49 |

Source: ChEMBL document CHEMBL5126611, “Design, Synthesis, and Biological Evaluations of Pyridyl 4,5,6,7-Tetrahydro-4,7-Methanobenzo[d]isoxazoles as Potent and Selective Inhibitors of 11β-Hydroxylase” (J Med Chem, 2022)
